In ChEMBL document CHEMBL4680314, “Discovery of potent glycogen synthase kinase 3/cholinesterase inhibitors with neuroprotection as potential therapeutic agent for Alzheimer's disease” (Bioorg Med Chem, 2021) one finds IC50 and Papp data, which are given here for six compounds.

Bounds are passed on as bounds.

Cholinesterase, sequence (P06276 whole entry): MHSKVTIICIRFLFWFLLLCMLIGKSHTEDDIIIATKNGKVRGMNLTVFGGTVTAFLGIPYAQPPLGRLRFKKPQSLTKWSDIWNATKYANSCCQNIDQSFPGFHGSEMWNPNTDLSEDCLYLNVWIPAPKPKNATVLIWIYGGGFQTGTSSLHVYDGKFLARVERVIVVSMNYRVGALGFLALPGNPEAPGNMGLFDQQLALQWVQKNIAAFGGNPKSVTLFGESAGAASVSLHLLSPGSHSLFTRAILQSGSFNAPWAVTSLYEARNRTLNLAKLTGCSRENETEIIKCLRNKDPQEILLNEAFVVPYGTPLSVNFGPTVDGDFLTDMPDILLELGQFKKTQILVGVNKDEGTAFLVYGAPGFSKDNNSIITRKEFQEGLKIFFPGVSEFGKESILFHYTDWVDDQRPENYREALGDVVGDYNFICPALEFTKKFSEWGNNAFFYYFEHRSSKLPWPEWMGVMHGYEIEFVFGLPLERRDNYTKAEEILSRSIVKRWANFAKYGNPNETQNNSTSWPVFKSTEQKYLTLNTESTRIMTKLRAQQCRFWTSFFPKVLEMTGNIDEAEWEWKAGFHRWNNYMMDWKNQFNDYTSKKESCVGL

One data set has as its target Cholinesterase (Homo sapiens, UniProt P06276). Description: Inhibition of human BChE using butyrylthiocholineiodide as substrate incubated for 10 mins by Ellman's method.
Conditions: not given
For orientation: In Ellman's method for cholinesterases, released thiocholine reacts with DTNB.
Regarding `CNC(=O)c1sc(-c2ccnc(NC(=O)C3CC3)c2)nc1OCC1CCN(Cc2ccc(Cl)cc2)CC1`, the IC50 was found to be 297 µM.
Compound `NC(=O)c1sc(-c2ccnc(NC(=O)C3CC3)c2)nc1OCCC1CCN(Cc2ccccc2Cl)CC1` yielded an IC50 of 301 µM.
For the compound `CNC(=O)c1sc(-c2ccnc(NC(=O)C3CC3)c2)nc1OCC1CCN(Cc2ccc(Br)cc2)CC1`, the IC50 worked out at 68 µM.
Consider `NC(=O)c1sc(-c2ccnc(NC(=O)C3CC3)c2)nc1OCCC1CCN(Cc2ccc(F)c(F)c2)CC1`, for which the IC50 is 7.2 µM.
As for `NC(=O)c1sc(-c2ccnc(NC(=O)C3CC3)c2)nc1OCCC1CCN(Cc2c(F)cccc2F)CC1`, the IC50 is 1.9 µM.
As for `NC(=O)c1sc(-c2ccnc(NC(=O)C3CC3)c2)nc1OCCC1CCN(Cc2ccc(F)cc2)CC1`, the IC50 was 17.6 µM.

Another data set deals with Glycogen synthase kinase-3 beta (Homo sapiens, UniProt P49841). Briefly: biochemical.
Glycogen synthase kinase-3 beta, sequence (P49841 whole entry): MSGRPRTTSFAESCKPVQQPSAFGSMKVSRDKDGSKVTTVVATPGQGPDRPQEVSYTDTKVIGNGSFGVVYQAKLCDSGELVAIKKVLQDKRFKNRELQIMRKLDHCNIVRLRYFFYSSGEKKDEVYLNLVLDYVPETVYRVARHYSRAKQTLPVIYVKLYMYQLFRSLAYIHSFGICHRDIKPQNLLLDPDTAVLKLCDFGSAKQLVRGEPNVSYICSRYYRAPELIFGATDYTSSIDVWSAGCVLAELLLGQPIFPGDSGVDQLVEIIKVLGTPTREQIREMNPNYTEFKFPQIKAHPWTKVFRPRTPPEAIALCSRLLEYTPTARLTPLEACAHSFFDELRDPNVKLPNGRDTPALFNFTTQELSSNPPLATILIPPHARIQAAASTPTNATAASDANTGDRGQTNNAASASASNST
Conditions: not given
For `CNC(=O)c1sc(-c2ccnc(NC(=O)C3CC3)c2)nc1OCC1CCN(Cc2ccc(Cl)cc2)CC1`, half-maximal inhibition (IC50) was put at 0.045 µM.
The same measure, in the same setting: with `NC(=O)c1sc(-c2ccnc(NC(=O)C3CC3)c2)nc1OCCC1CCN(Cc2ccccc2Cl)CC1` the figure was 0.027 µM; with `CNC(=O)c1sc(-c2ccnc(NC(=O)C3CC3)c2)nc1OCC1CCN(Cc2ccc(Br)cc2)CC1`, 0.026 µM; with `NC(=O)c1sc(-c2ccnc(NC(=O)C3CC3)c2)nc1OCCC1CCN(Cc2ccc(F)c(F)c2)CC1`, 0.01 µM.
`NC(=O)c1sc(-c2ccnc(NC(=O)C3CC3)c2)nc1OCCC1CCN(Cc2c(F)cccc2F)CC1` yielded an IC50 of 0.005 µM.
For the compound `NC(=O)c1sc(-c2ccnc(NC(=O)C3CC3)c2)nc1OCCC1CCN(Cc2ccc(F)cc2)CC1`, the IC50 was determined as 0.038 µM.

Test system in the next data set: not listed separately
Briefly: in vitro. Particulars: PAMPA. A general note: The PAMPA barrier holds no transporters, so it reflects passive diffusion.
Description: Effective permeability of compound in PBS/EtOH buffer (7:3) at 25 ug/ml incubated for 18 hrs by PAMPA-BBB assay
Turning to `NC(=O)c1sc(-c2ccnc(NC(=O)C3CC3)c2)nc1OCCC1CCN(Cc2ccccc2Cl)CC1`, the Papp at 18 h, 25 ug/ml came to 6.8 ×10⁻⁶ cm/s.
On to `NC(=O)c1sc(-c2ccnc(NC(=O)C3CC3)c2)nc1OCCC1CCN(Cc2c(F)cccc2F)CC1`, for which the Papp at 18 h, 25 ug/ml turned out to be 6.8 ×10⁻⁶ cm/s.
Compound `NC(=O)c1sc(-c2ccnc(NC(=O)C3CC3)c2)nc1OCCC1CCN(Cc2ccc(F)cc2)CC1` yielded an apparent permeability coefficient (Papp) at 18 h, 25 ug/ml of 8.2 ×10⁻⁶ cm/s.

The next data set deals with Acetylcholinesterase (Homo sapiens, UniProt P22303). Briefly: Inhibition of human recombinant AChE expressed in HEK293 cells using acetylthiocholine iodide as substrate incubated for 10 mins by Ellman's method. It counts as cell-based.
Acetylcholinesterase, sequence (P22303 whole entry): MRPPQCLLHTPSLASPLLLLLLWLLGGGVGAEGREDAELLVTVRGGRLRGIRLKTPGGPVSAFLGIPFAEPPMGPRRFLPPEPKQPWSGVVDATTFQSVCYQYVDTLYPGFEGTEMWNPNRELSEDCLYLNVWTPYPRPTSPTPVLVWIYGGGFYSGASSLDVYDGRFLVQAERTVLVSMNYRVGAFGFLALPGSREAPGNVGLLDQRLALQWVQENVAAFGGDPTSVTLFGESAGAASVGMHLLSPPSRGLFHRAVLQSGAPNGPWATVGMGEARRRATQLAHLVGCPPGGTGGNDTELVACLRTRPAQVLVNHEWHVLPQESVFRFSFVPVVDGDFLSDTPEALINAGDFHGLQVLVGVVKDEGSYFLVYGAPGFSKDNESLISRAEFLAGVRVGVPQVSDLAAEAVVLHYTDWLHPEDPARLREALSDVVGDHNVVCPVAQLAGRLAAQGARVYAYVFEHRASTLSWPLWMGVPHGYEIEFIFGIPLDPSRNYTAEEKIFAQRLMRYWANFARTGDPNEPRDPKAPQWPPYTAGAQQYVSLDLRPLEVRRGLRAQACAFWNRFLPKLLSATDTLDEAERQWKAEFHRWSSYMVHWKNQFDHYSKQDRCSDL
Conditions: not given
Regarding `CNC(=O)c1sc(-c2ccnc(NC(=O)C3CC3)c2)nc1OCC1CCN(Cc2ccc(Cl)cc2)CC1`, the concentration for half-maximal inhibition (IC50) turned out to be 82 µM.
On to `NC(=O)c1sc(-c2ccnc(NC(=O)C3CC3)c2)nc1OCCC1CCN(Cc2ccccc2Cl)CC1`, for which the half-inhibitory concentration (IC50) worked out at 3.7 µM.
Still for that read-out and setting: for `CNC(=O)c1sc(-c2ccnc(NC(=O)C3CC3)c2)nc1OCC1CCN(Cc2ccc(Br)cc2)CC1` the value was more than 1000 µM.
Regarding `NC(=O)c1sc(-c2ccnc(NC(=O)C3CC3)c2)nc1OCCC1CCN(Cc2ccc(F)c(F)c2)CC1`, the IC50 came to 42.8 µM.
Take `NC(=O)c1sc(-c2ccnc(NC(=O)C3CC3)c2)nc1OCCC1CCN(Cc2c(F)cccc2F)CC1`: the IC50 is 19.5 µM.
`NC(=O)c1sc(-c2ccnc(NC(=O)C3CC3)c2)nc1OCCC1CCN(Cc2ccc(F)cc2)CC1`: the IC50 turned out to be 4.5 µM.

By IC50 is commonly meant the concentration that gives 50% inhibition. Broadly, the Papp is the rate of passage across a membrane or cell layer, normalised by area and donor concentration. The low end stands for slow passage, the high end for fast passage.
